# Test results from patent publication US8563503B2, “Antibiotic, its nucleotide sequence, methods of construction and uses thereof” (Protein Design Lab. Ltd., priority 2011, dated 2013).
# What was measured:
# [1] = system: ATCC 25923 penicillin-sensitive Staphylococcus aureus; test: Bacteria growth curve (A595 nm cloudiness), penicillin-sensitive Staphylococcus aureus; format: cell-based; conditions: drug 100 ng/ml, 37° C., A595 nm per hour
# Procedure: The bacterium was United States Reference Culture ATCC 25923 penicillin-sensitive Staphylococcus aureus. 2 microliter of bacteria solution (10^5 CFU/ml) was added into 10 ml culture solution containing 1% tryptone, 1% NaCl, 0.5% yeast extract, 0.5% glucose and 0.1% K2HPO4, totally prepared six groups. The first group as control was added 0.3 M NaCl+50 mM boric acid buffer fluid (i.e. blank preservative fluid for novel antibiotic, wild-type colicin Ia and protein produced by BL-21 engineering bacteria without plasmid, by the same volumes of antibiosis polypeptide liquid in the experimental group, the second group was added penicillin G sodium by 100 ng/ml, the third group was added wild-type colicin Ia by 100 ng/ml, the fourth group was added protein produced by BL-21 engineering bacteria without plasmid by 100 ng/ml, the fifth group was added recombinant protein that C-terminus of colicin Ia is fused other eight peptides by 100 ng/ml, and the sixth group was added the novel antibiotic PMC-SA1 by 100 ng/ml.
# The solutions of the six groups were respectively put into 100 ml conical flask, 200 rpm, grew at 37° C. 100 μl was sampled per hour, and added onto 96 hole ELISA Plate and measured bacterium growth cloudiness by spectrophotometer (A595 nm) color comparison. The bacteria-growth curve was drawn up to compare the bacteriostasis efficacy of novel antibiosis.
# Baumanii = test: MIC by Agar Doubling Dilution Method, clinical isolates; format: cell-based
# Procedure: (§1) (3) Culture Solution • MH Broth Culture Solution: 25 g was added into […] distilled water, heat to dissolve, subpackaged, autoclaved at 116° C. for 20 minutes, and MH Solid Culture Medium, 36 g was added into 1000 ml distilled water, autoclaved at 116° C. for 20 minutes, used for drug sensitive test of Gram-positive and negative aerobic bacteria. • Blood culture solution for Enterococcus faecalis, which was prepared by adding defibration rabbit blood into the MH culture solution by 5-10% and cultured at 37° C. in 5% CO2 for 24 hours. 2. Experimental Methods (1) The Measurement of Minimum Inhibitory Concentration (MIC) • The Minimum Inhibitory Concentration (MIC) of PMC-SA1 was measured by Agar Doubling Dilution Method. The bacterium was inoculated on the surface of agar plate containing different concentration of drugs by multipoint inoculate instrument (Deneley A400). The bacterial content per point was 10^5 CFU/ml. After incubated at 37° C. for 18-24 hours, the result can be observed. The least concentration of drugs in plate culture solution without bacterium growing was Minimum Inhibitory Concentration (MIC) of the drug to the said bacteria. 3. Results
# E. coli = test: as above; format: cell-based; conditions: Escherichia coli, E. coli clinical strains
# Procedure: as §1
# [2] = system: Staphylococcus aureus (MRSA); test: as above; format: cell-based; conditions: Staphylococcus aureus, MRSA
# Procedure: as §1
# [3] = system: Staphylococcus aureus (MSSA); test: as above; format: cell-based; conditions: Staphylococcus aureus, MSSA
# Procedure: as §1
# [4] = system: Staphylococcus epidermidis (MRSE); test: as above; format: cell-based; conditions: Staphylococcus epidermidis, MRSE
# Procedure: as §1
# [5] = system: Staphylococcus epidermidis (MSSE strain); test: as above; format: cell-based
# Procedure: as §1
# Enterococcus = test: as above; format: cell-based, Enterococcus faecalis; conditions: Enterococcus
# Procedure: as §1
# Enterococcus ATCC 700802 [6] = test: MIC against the infecting strain (Table 2); format: cell-based, Enterococcus faecalis; conditions: ATCC700802
# Procedure: as §1
# E. coli 02-1-65 [7] = test: MIC against the infecting strain (Table 2); format: cell-based; conditions: Escherichia coli, 02165
# Method in brief: (§2)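 MIC = lowest drug level in agar showing no bacterial growth after 18-24 h at 37° C. Spots of 10^5 CFU/ml were multipoint-inoculated onto MH agar with twofold drug dilutions; enterococci used MH plus 5-10% rabbit blood under 5% CO2.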
# [8] = system: Staphylococcus aureus ATCC 29213; test: MIC against the infecting strain (Table 2); format: cell-based; conditions: ATCC29213
# Method in brief: as §2
# [9] = system: Staphylococcus aureus MRSA BAA-42; test: MIC against the infecting strain (Table 2); format: cell-based; conditions: Staphylococcus aureus
# Method in brief: as §2
# E. coli 02-1-65 [10] = test: Protection test in vivo (intravenous injection) of infected mice; parameters: species or system Kungming mice; conditions: Escherichia coli, 02165
# Method in brief: (§3)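 Mice got a lethal intraperitoneal bacterial challenge, then one intravenous dose of drug in sterile water at 10, 5 or 2.5 mg/kg. Survival was checked every 24 h for 7–14 days, with death counted as the positive result.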
# Enterococcus ATCC 700802 [11] = test: as above; parameters: species or system Kungming mice; conditions: Enterococcus, ATCC700802
# Method in brief: as §3
# [12] = system: Staphylococcus aureus ATCC 29213; test: as above; parameters: species or system Kungming mice; conditions: Staphylococcus aureus, ATCC29213
# Method in brief: as §3
# [13] = system: Staphylococcus aureus MRSA BAA-42; test: as above; parameters: species or system Kungming mice; conditions: Staphylococcus aureus
# Method in brief: as §3
smiles,measurement,setting,value
"CC1(C)S[C@@H]2[C@H](NC(=O)Cc3ccccc3)C(=O)N2[C@H]1C(=O)O [Penicillin, Benzylpenicillin Sodium]",growth of penicillin-sensitive Staphylococcus aureus (bacteria-growth curve),[1],restrained
same,MIC50,Baumanii,> 128 µg/mL
same,MIC90,Baumanii,> 128 µg/mL
same,MIC,Baumanii; read-out: Scope of MIC,> 128 µg/mL
same,MIC50,E. coli; read-out: MIC50,> 128 µg/mL
same,MIC90,E. coli; read-out: MIC90,> 128 µg/mL
same,MIC,E. coli; read-out: Scope of MIC,> 128 µg/mL
same,MIC50,[2],128 µg/mL
same,MIC90,[2],> 128 µg/mL
same,MIC,[2]; read-out: Scope of MIC,1 to 128 µg/mL
same,MIC50,[3],8 µg/mL
same,MIC90,[3],64 µg/mL
same,MIC50,[4],> 128 µg/mL
same,MIC90,[4],> 128 µg/mL
same,Scope of MIC,[5]; MSSE clinical strains,0.125 to 128 µg/mL
same,MIC50,[5]; Staphylococcus epidermidis,4 µg/mL
same,MIC90,[5]; Staphylococcus epidermidis,32 µg/mL
same,MIC50,Enterococcus,32 µg/mL
same,MIC90,Enterococcus,64 µg/mL
same,MIC,Enterococcus ATCC 700802 [6],4 µg/mL
same,MIC,E. coli 02-1-65 [7],> 128 µg/mL
same,MIC,[8],16 µg/mL
same,MIC,[9],8 µg/mL
same,ED50,E. coli 02-1-65 [10],> 34.5 mg/kg
same,ED50,Enterococcus ATCC 700802 [11],4.16 mg/kg
same,ED50,[12],10.8 mg/kg
same,ED50,[13],14.7 mg/kg
